Experiments:
[1] = test system: pDCs of HDs; assay: TLR gene expression in purified pDCs from HDs cultured with cytokines or chemokines (qPCR); assay type: cell-based, human; settings: 24 hours; for induction of TLR8 expression on pDCs of HDs: purified pDCs from HDs, IFN-α and IFN-γ 10 ng/ml, IL-12 100 ng/ml, IL-6 5 ng/ml, IL-10 10 ng/ml, TNF 1 ng/ml, TGF-β 10 ng/ml
Procedure: (§1) PBMCs were prepared using Ficoll-Paque density gradient from fresh blood under internal Institutional Review Board-approved protocols. pDCs were isolated as previously described (Guiducci et al. 2008) using either using negative depletion (Miltenyi Biotech) or following cell sorting using a BD IFNLUX cell sorter. As part of the gating strategy, neutrophils were excluded by FSC/SSC and cells positive for CD14 (CD3 and CD19 as well) were first excluded in order to prevent the contamination by TLR8 positive cells and then positively gated on HLA-DR, CD123 and BDCA4 to purify the pDCs. All BDCA4+ cells also express BDCA2 (results not shown). As a result, pure pDCs were obtained and no markers for neutrophils (CD66) or myeloid cells were found by PCR. B cells were FACS sorted as CD19+ and monocytes as CD14+ cells. PBMCs were depleted of pDCs using BDCA4 beads from Miltenyi. pDCs were cultured at 10,000-30,000 cells per well in a 96-round bottom plate and incubated at 37° C., 5% CO2 and 95% humidity. After 24 hours of culture, the supernatant was collected for ELISA or Mutiplex cytokine assays. In some culture conditions, cells were cultured with the PI3Kδ inhibitor, CAL-101 (Selleck chemicals) for 24 hours. The RNA-based TLR8 agonist, ORN8-L previously described (Guidacci et al. 2013) was synthetized by Chemgenes Corporation. For the TLR8 activation assay, pDCs were incubated in complete media alone, 200 μg/ml ORN8-L in complete media or 200 μg/ml ORN8-L+ 10 μg/ml CXCL4 (R&D systems).
PCR reactions were performed as described previously with 10 ng of cDNA (Barrat et al. 2005). In brief, RNA was extracted from cells using the Qiagen RNeasy Mini Kit. Quantity of RNA was measured by Nanodrop and high-capacity cDNA Reverse Transcription kit was used to generate 20-50 ng cDNA. Gene expression levels were calculated based on relative threshold cycle (Ct) values. This was done using the formula Relative Ct=100×1.8 (HSK-GENE), where HSK is the mean CT of duplicate housekeeping gene runs (we used Ubiquitin), GENE is the mean CT of duplicate runs of the gene of interest, and 100 is arbitrarily chosen as a factor to bring all values above 0.
In particular, CXCL4 or IP-10 (two CXCR3B agonists) (10 μg/ml each) had no impact on TLR8 nor TLR7 and TLR9 expression levels in pDCs (FIG. 2C).

[2] = test system: PBMCs and pDC-depleted PBMCs; assay: IFN-α production in PBMCs and pDC-depleted PBMCs cultured with CpG and chemokines (ELISA); assay type: cell-based, human; settings: CpG 0.25 μM + chemokine 10 μg/ml
Procedure: PBMCs were prepared using Ficoll-Paque density gradient (GE Healthcare) as previously described (Guiducci et al., 2008).
pDCs were isolated from PBMCs by positive selection using BDCA4-MicroBead Kit as previously described (Guiducci et al., 2008). pDC-depleted PBMC were prepared by removing BDCA4-positive cells from PBMC using microbeads.
(§2) 5×10^5 PBMCs or pDC-depleted PBMCs were cultured in 96 wells plate and stimulated with 0.25 μM CpG DNA with or without 10 μg/ml CXCL4, CXCL10, CXCL12 or CCL5. Freshly isolated pDCs were resuspended at 5×10^4 cells/100 μl RPMI 1640 medium (Gibco) and stimulated with the 0.25 μM CpG with/without 10 μg/ml indicated chemokines. The supernatant was harvested after 18 h and IFN-α was measured by ELISA.
As shown above, CXCL4 can increase IFN-α production by TLR9-activated pDCs. Thus it was tested whether other chemokines may impact TLR9 signaling in pDCs. Purified pDCs were left unstimulated (Unstim.) or cultured with CpG (0.25 μM) alone or with the indicated chemokines at 10 μg/ml. IFN-α secretion was quantified by ELISA. Strikingly, it was observed that a set of chemokines, including CXCL4, CXL10, CXCL12 and CCL5, were able to superinduce TLR9-induced response by pDCs (FIG. 18A), while they had no effect when used alone (results not shown). […] This also raised questions as to the specificity and mechanism for this effect. First, as other DNA sensors have been described to induce IFN-α in immune cells (Barrat et al., 2016), it was tested to see if these chemokines altered the specificity of the CpGs for TLR9 and if the IFN-α response was restricted to pDCs. Total PBMCs or PBMCs where pDCs were depleted (PBMC-ΔpDCs) were incubated with CpGs and either CXCL4, CXCL10, CXCL12 or CCL5 and IFN-α production was quantified by ELISA.

[3] = test system: purified pDCs from HDs or SSc patients; assay: IFN production by purified pDCs cultured with chemokine alone; assay type: cell-based, human; settings: chemokine 10 μg/ml without CpG, results not shown
Procedure: as §1
Supernatant from pDCs 24 hour culture was used for quantification of secreted chemokines and cytokines and measured with the use of an enzyme-linked immunosorbent assay (ELISA) or Luminex multiplex-beads immunoassay. CXCL4 ELISA (Ray Biotech) and IFNα, IP-10, IL-6, TNF Luminex assay (Millipore) was performed according to the manufacturer's protocol. Due to the variability in the number of cells obtained from the different patients and so we could compare the values across donors, all results were normalized to 10,000 cells. Of note, for all donors, pDCs were plated between 10,000-30,000 cells.
When purified pDCs from HDs or SSc patients were cultured with CXCL4 alone ([…]), there was no effect on IFN production.
as §2

[4] = test system: TLR9-mediated activation of pDCs; assay: TLR9-mediated activation of purified pDCs (CpG with or without chemokines), IFN-α ELISA; assay type: cell-based, human; settings: for TLR9-induced response (IFN-α secretion) by pDCs / IFNα production from TLR9 in pDCs from HDs: CpG 0.25 μM; for TLR9-induced response (IFN-α secretion) by pDCs: chemokine 10 μg/ml (Example 17); for dependence of IFN-α superinduction on chemokine receptors: with AMG487 100 nM, AMD3100 10 μg/ml, anti-CXCR7 11G8 10 μg/ml, J113863 1.5 μM or Vicriviroc 0.1 μM; for IFNα production from TLR9 in pDCs from HDs: chemokine 10 μg/ml (Example 9)
[5] = test system: TLR9-mediated activation of human B cells; assay: TLR9-mediated activation of human B cells (CpG with or without chemokines); assay type: cell-based; settings: chemokine 10 μg/ml; for activation of B cells via TLR9 as shown by the production of IL-6: CpG 0.15 μM, ELISA
Procedure: as §1
IL-6, TNF, and IL-10 gene levels were measured at 6 hours post culture using PCR. The secretion of cytokines/chemokines in the supernatants was quantified using Luminex. CD83, CD80, CD86 and CD69 expression was measured by flow cytometry at 24 hour post culture.
Human B cells were purified and cultured for 6 hours or 24 hours either with medium only, with CpG-C (at 0.15 μM) alone or with a combination of CpG-C and CXCL4 (at 10 μg/ml). IL-6 gene levels was measured at 6 hour post culture by PCR and CD83, CD80, CD86 and CD69 expression was measured by flow cytometry at 24 hour post culture.
Purified B cells from HDs were cultured in media alone (control), with either a CpG TLR9 agonist (0.15 μM) or with CpG and either CXCL4, CXCL10, CXCL9, CXCL4, CXCL7 or CXCL12 (all at 10 μg/ml). IL-6 was quantified in the supernatants by ELISA.
Purified B cells from HDs were cultured in media alone (control), with either a CpG TLR9 agonist (0.25 μM) or with CpG and CXCL4 or CXCL10 (10 μg/ml) alone or in the presence of the CXCR3 inhibitor AMG487 at 0, 0.1, 1 or 10 μM for 6 hours or 24 hours. IL-6 was quantified by ELISA at 24 hours and IL-6 and TNF gene expression levels were quantified by q-PCR at 6 hours and CD83, CD80, CD86 and CD69 expression was measured by flow cytometry at 24 hours post culture.

TGF-β
induction of TLR8 expression on pDCs of HDs [1]: none of these molecules could induce TLR8

IFN-α
induction of TLR8 expression on pDCs of HDs [1]: none of these molecules could induce TLR8

CCL5: small chemokine belonging to the CC chemokine family
IFN-α production in absence of the pDCs (PBMC-ΔpDCs versus total PBMCs) [2]: dramatic decrease | IFN-α secretion by pDCs, chemokine used alone [3]: no effect | TLR9-induced response (IFN-α secretion) by pDCs [4]: superinduce | dependence of IFN-α superinduction on chemokine receptors [4]: independent of their chemokine receptors

CXCL12: stromal cell-derived factor-1, small chemokine belonging to the CXC chemokine family
activation of B cells via TLR9 as shown by the production of IL-6 [5]: inhibited | IFN-α production in absence of the pDCs (PBMC-ΔpDCs versus total PBMCs) [2]: dramatic decrease | IFN-α secretion by pDCs, chemokine used alone [3]: no effect | IFNα production from TLR9 in pDCs from HDs [4]: potentiated | TLR9-induced response (IFN-α secretion) by pDCs [4]: superinduce | dependence of IFN-α superinduction on chemokine receptors [4]: independent of their chemokine receptors

CXCL10: small chemokine belonging to the CXC chemokine family and a ligand for the receptor CXCR3
effect of inhibition of CXCR3 on the chemokine's inhibition of TLR9 in B cells ([5]; CXCR3 inhibitor AMG487 0.1, 1 or 10 μM, CpG 0.25 μM, 6 or 24 hours): no effect | activation of B cells via TLR9 as shown by the production of IL-6 [5]: inhibited | IFN-α production in absence of the pDCs (PBMC-ΔpDCs versus total PBMCs) [2]: dramatic decrease | TLR8, TLR7 and TLR9 expression levels in pDCs ([1]; 10 μg/ml each, pDCs from HDs): no impact | IFN-α secretion by pDCs, chemokine used alone [3]: no effect | IFNα production from TLR9 in pDCs from HDs [4]: potentiated | TLR9-induced response (IFN-α secretion) by pDCs [4]: superinduce | dependence of IFN-α superinduction on chemokine receptors [4]: independent of their chemokine receptors

heparin [reference compound]
superinduction of IFN-α by all four chemokines (CXCL4, CXCL10, CXCL12, CCL5) ([4]; heparin 1 U/ml, CpG-activated pDCs): reduced

IL-6: cytokine added to pDC culture at 5 ng/ml
induction of TLR8 expression on pDCs of HDs [1]: none of these molecules could induce TLR8

B1: IFN-γ: cytokine added to pDC culture at 10 ng/ml (protein, UniProt P01579 24-161, looked up)
Interferon gamma: QDPYVKEAENLKKYFNAGHSDVADNGTLFLGILKNWKEESDRKIMQSQIVSFYFKLFKNFKDDQSIQKSVETIKEDMNVKFFNSNKKKRDDFEKLTNYSVTDLNVQRKAIHELIQVMAELSPAAKTGKRKRSQMLFRG
induction of TLR8 expression on pDCs of HDs [1]: none of these molecules could induce TLR8

B2: CXCL9: belongs to the CXC chemokine family, also known as MIG (protein, UniProt Q07325 23-125, looked up)
C-X-C motif chemokine 9: TPVVRKGRCSCISTNQGTIHLQSLKDLKQFAPSPSCEKIEIIATLKNGVQTCLNPDSADVKELIKKWEKQVSQKKKQKNGKKHQKKKVLKVRKSQRSRQKKTT
activation of B cells via TLR9 as shown by the production of IL-6 [5]: inhibited

B3: IL-10: cytokine added to pDC culture at 10 ng/ml (protein, UniProt P22301 19-178, looked up)
Interleukin-10: SPGQGTQSENSCTHFPGNLPNMLRDLRDAFSRVKTFFQMKDQLDNLLLKESLLEDFKGYLGCQALSEMIQFYLEEVMPQAENQDPDIKAHVNSLGENLKTLRLRLRRCHRFLPCENKSKAVEQVKNAFNKLQEKGIYKAMSEFDIFINYIEAYMTMKIRN
induction of TLR8 expression on pDCs of HDs [1]: none of these molecules could induce TLR8

B4: IL-12: cytokine added to pDC culture at 100 ng/ml (protein, UniProt P29459 23-219; P29460 23-328, looked up)
Interleukin-12 subunit alpha: RNLPVATPDPGMFPCLHHSQNLLRAVSNMLQKARQTLEFYPCTSEEIDHEDITKDKTSTVEACLPLELTKNESCLNSRETSFITNGSCLASRKTSFMMALCLSSIYEDLKMYQVEFKTMNAKLLMDPKRQIFLDQNMLAVIDELMQALNFNSETVPQKSSLEEPDFYKTKIKLCILLHAFRIRAVTIDRVMSYLNAS
Interleukin-12 subunit beta: IWELKKDVYVVELDWYPDAPGEMVVLTCDTPEEDGITWTLDQSSEVLGSGKTLTIQVKEFGDAGQYTCHKGGEVLSHSLLLLHKKEDGIWSTDILKDQKEPKNKTFLRCEAKNYSGRFTCWWLTTISTDLTFSVKSSRGSSDPQGVTCGAATLSAERVRGDNKEYEYSVECQEDSACPAAEESLPIEVMVDAVHKLKYENYTSSFFIRDIIKPDPPKNLQLKPLKNSRQVEVSWEYPDTWSTPHSYFSLTFCVQVQGKSKREKKDRVFTDKTSATVICRKNASISVRAQDRYYSSSWSEWASVPCS
induction of TLR8 expression on pDCs of HDs [1]: none of these molecules could induce TLR8

Reference: patent publication US12427183B2, “Methods of treating cancer, infectious disease, and autoimmune disease using chemokines” (New York Society for the Relief of the Ruptured and …, priority 2016, dated 2025)
